Patent publication US4716225A, “Radioopaque sugar derivatives and a method of metabolic mapping using the same” (priority 1985, dated 1987)
“Also recorded” adds a separate entry of the source. Like-named read-outs stand apart in the source and are kept apart here.

Key:
[1] = Observation of side effects after injection into mice, rats, and dogs; type: in vivo; settings: in the concentrations described
Experimental: This is the region associated with limb and tail movement in the dog. […] Thus, the accumulation can be made to be selective.
(§1) Gross Toxicology. In order to be economical with the product, the gross toxicology of 6-IG was first determined in mice and rats. Enough material was injected in a volume of 0.1 ml into the tail vein to raise the blood concentration to 10^-3, 10^-2, and 10^-1 M, (0.02-2.11 g/kg). As an osmotic control, equimolar amounts of α-D-galactopyranose were injected into age matched animals.
(§2) Mongrel dogs (40-50 lbs) were injected intravenously with a bolus of α-D-galactose sufficient to raise the blood concentration to a level of 10^-2 M. They were then required to walk from the animal facility to the CAT scanner, approximately 10 minutes, where they were anesthetized. Anesthesia was induced with thiamytal (lmg/kg) and the animal was intubated with a cuffed endotrachial tube. Following induction, anesthesia was maintained with a gaseous mixture of Halothane, nitrous oxide and oxygen.

brain [2] = assay: CAT scanning of dog brain after injection of contrast medium; type: in vivo
Experimental: as §2
(§3) The time elapsed from injection to the start of the scan was approximately 1 hour. CAT scanning data were recorded on tape and served as a background control. Upon completion of scanning, the dog was recovered from anesthesia and returned to the animal facility, where routine care was resumed.
(§4) This procedure was repeated one day later; however, 6-IG was injected to an initial blood concentration of 10^-2 M. Nine days and 33 days following the injection, repeat scans were performed to ensure that the contrast medium had cleared.
The dog's brains were scanned by CAT in sequential slices in 3 mm. increments. […] The arrow indicates the regions where contrast was observed.

brain [3] = assay: Feasibility calculation of brain concentration of 6-iodo-D-galactose; parameters: species or system human
Text: It appears feasible to achieve such concentrations in, for example, brain tissue, by administering a sufficient amount of 6-iodo-D-galactose to obtain an initial blood concentration of about 10^-2 M in the patient.
However, it is proposed to use 6-iodo-D-galactose or other such 2-, 5- or 6-substituted hexoses. […] But the uptake of galactose relative to 2-deoxyglucose is 31%. Therefore, it is estimated that the total brain concentration of 6-iodo-D-galactose is approximately 20%×0.31, or 6% of the initial blood concentration. When the initial blood concentration is 10^-2 M, final brain concentration would approximate 6×10^-4 M. To achieve this, it is necessary to inject approximately 15 grams of iodogalactose. [formula]
An adult has a blood volume of approximately 4-5 L, so to achieve the desired concentration of 10^-2 M (moles per liter) of 6-iodo-galactosewhose formula weight is 290 g/mole will require:
wt=(5 liter)(1 X10^-2 mole/liter)(290 g/mole)=14 g.
Thus, the criterion of having a brain concentration within the range of 10^-4 to 10^-3 M is met. Although this concentration is the lower limit of detection, it should not deleteriously affect the clarity of the brain CAT scan. […]

[4] = Observation of side effects after intravenous injection in dogs; type: in vivo, Mongrel dogs
Experimental: as §2, §3, §4

[5] = Gross toxicology after intravenous (tail vein) injection in mice and rats; type: in vivo
Experimental: as §1
6-IG was injected intravenously into 20 g male mice and equivalent amounts of α-D-galactopyranose were injected into age-matched controls. […] Three days post-injection, the animals were killed by ether inhalation and autopsied.

brain [6] = settings: 0.5 mg FDG injection, cited from earlier work
[7] = system: blood/brain barrier saturable carrier of glucose; settings: cited from earlier work

O[C@@H]1[C@@H](O)[C@@H](O)O[C@H](CI)[C@@H]1O [6-IG, 6-iodo-6-deoxy-α-D-galactopyranose]
obvious side effects [1]: do not produce any obvious side effects | contrast accumulation in the cortical area, posterior portion of frontal lobe (brain [2]; 1 hour post-injection, initial blood concentration 10^-2 M): accumulated in the cortical area of the posterior portion of the frontal lobe within one hour after injection; also recorded: beginning of accumulation as early as 1 hour post-injection | contrast in pareital region and other areas of the brain (brain [2]; 9 days post-injection (FIG. 3)): no contrast is seen in the pareital lobe intracellular section shown in FIG. 3, nor in any other areas of the brain that were scanned; also recorded: no contrast medium has accumulated in that section of the brain | contrast accumulation in the cortical area, posterior portion of frontal lobe (brain [2]; 9 days post-injection, initial blood concentration 10^-2 M): greater contrast is seen in the same region 9 days post-injection; also recorded: greater contrast in the same cortical regions | clearance of contrast medium (brain [2]; 33 days post-injection, initial blood concentration 10^-2 M): cleared completely | accumulation and clearance compared to FDG (PET) (brain [2]; compared to Fluorodeoxyglucose): relatively slower | time of peak concentration (brain [2]; dog brain, between 1 hour and 9 days post-injection): some time inbetween | clearance of the compound (brain [2]; dog brain, present at nine days post injection): relatively slow | distribution of accumulation in brain (brain [2]; general statement on accumulation in dog brain): accumulates in areas of the brain that are metabolically hyperactive in response to normal stimuli | distribution of accumulation after digitization (brain [2]; slice of FIG. 2C, 9 days post-injection, background subtracted): generally greatest in the cortical region | estimated total brain concentration as percent of initial blood concentration (brain [3]; calculated as 20%×0.31): ~6% | concentration (brain [3]; initial blood concentration 10^-2 M, read-out: estimated final brain concentration): ~600 µM | apparent side effects ([4]; dogs, i.v., initial blood concentration 10^-2 M): Neither the control nor the iodinated injection medium had any apparent side effects | immediate effects of injection on the animals ([5]; 20 g male mice, i.v., max 2.11 g 6-IG/kg or equivalent amount of α-D-galactopyranose): no apparent immediate effects on the animals | gross findings at autopsy ([5]; mice, three days post-injection, i.v., max 2.11 g 6-IG/kg): no gross findings

Fluorodeoxyglucose [FDG]
brain concentration of FDG (brain [6]; after 40 minutes accumulation time): 25 ng/cc | brain concentration as percent of initial blood concentration (brain [6]; human, 40 min): 20% | concentration (brain [6]; read-out: molar brain concentration of FDG, after 40 minutes, brain cell volume 1 L): 138 nM

OC[C@H]1O[C@H](O)[C@H](O)[C@@H](O)[C@H]1O [α-D-galactopyranose, reference compound]
uptake relative to 2-deoxyglucose [7]: 31% | crossing of blood/brain barrier ([7]; same saturable carrier as glucose): cross the blood/brain barrier by the same saturable carrier as glucose | apparent side effects ([4]; dog, in vivo, iv): Neither the control nor the iodinated injection medium had any apparent side effects | gross findings at autopsy ([5]; in vivo, iv): no gross findings | immediate effects of injection on the animals ([5]; in vivo, iv): no apparent immediate effects on the animals

OC[C@H]1OC(O)C[C@@H](O)[C@@H]1O (stereo partly drawn) [2-deoxyglucose]
crossing of blood/brain barrier [7]: cross the blood/brain barrier by the same saturable carrier as glucose
